Experiments:
[1] = tested on: GFP-ATF6 in U2OS-GFP-ATF6 cells; experiment: ATF6 nuclear localization, high-content imaging; type: cell-based; conditions: 10 μM, 5 h
Experimental: 300 μL of 1.375×10^4 U2OS-GFP-ATF6 cells per ml were plated per well in 96 well imaging plate (ibidi 89626) and sealed with breathable seals (E&K Scientific T896100) two days prior to drug addition. Immediately prior to addition to cells, compounds were diluted to 6× in media from 500×DMSO stock and 60 μL 6× was added to cells for 1× final (0.2% DMSO).
After 5h, media was removed and cells were fixed in 4% PFA (Electron Microscopy Sciences 15714) in PHEM buffer (60 mM PIPES, 25 mM HEPES, 10 mM EGTA, 2 mM MgCl2-hexahydrate, pH 6.9) for 15 minutes at RT. […]
Images were analyzed using CellProfiler^7, MATLAB R2014a and GraphPad Prism 5. […] The ratio of the GFP intensity in the nucleus versus the ER was calculated for each cell and plotted as a histogram per well. A threshold for the minimum ratio of nuclear to ER signal corresponding to an activated (i.e. nuclear localized ATF6) cell was calculated as the minimum nuclear: ER ratio greater than 1 where the number of ER stressed cells (Tg) was greater than the corresponding unstressed control. Percent activation per well was calculated as the percentage of cells per well with a nuclear: ER ratio greater than the calculated threshold for that plate. […]

[2] = tested on: ATF6; experiment: Immunoblot of the 50 kDa ATF6 fragment; type: cell-based; conditions: immunoblotting
Experimental: For immunoblotting, cells were lysed in 50 mM Tris buffer, pH 7.5 containing 0.1% TritonX (Fisher Scientific) and supplemented with protease inhibitor cocktail (Roche). For immunoblots of endogenous ATF6, cells were washed in PBS containing protease inhibitor cocktail and 10 μM MG-132 and subsequently lysated in 1× Laemmli buffer, supplemented in the same way, by repeating cycles of boiling and vortexing. Protein lysate concentrations were normalized by Bradford assays (Bio-Rad). Lysates or media were boiled for 10 min in Laemmli buffer+100 mM DTT before loading onto SDS-PAGE gel. Proteins were transferred from gel slabs to nitrocellulose, and the Odyssey Infrared Imaging System (Li-Cor Biosciences) was used to detect proteins of interest.

[3] = tested on: ALLC (amyloidogenic light chain); experiment: ALLC secretion from ALMC-2 cells after cycloheximide administration; type: cell-based, human; conditions: absence of new protein synthesis
[4] = tested on: ERSE-FLuc reporter (ATF6 arm of the UPR); experiment: ERSE-FLuc reporter, 96-well, HEK293T-Rex cells (SAR and S1P inhibition); type: cell-based; conditions: HEK293T-Rex; 10 μM
Experimental: HEK293T-Rex cells incorporating the ERSE-FLuc reporter and HEK293^DAX cells were plated approximately 20,000 cells/well in flat-bottomed, black 96-well assay plates (Costar, Corning, Inc.) overnight prior to compound administration. Cells were treated with compounds as described for 12-18 h then the plates were equilibrated to room temperature and 50 μL of SteadyLite (PerkinElmer) was added to each well. Luminescence activity was measured in a Safire II microplate reader with a 1000 ms integration time.

SMILES | nuclear fraction of ATF6-GFP (ATF6 nuclear translocation) [1] | accumulation of the 50 kDa ATF6 fragment (S1P/S2P proteolysis) [2] | reduction in ALLC secretion after cycloheximide [3] [%] | ERSE reporter activity relative to 263 [4]
Cc1ccc(O)c(N/C=C/C(=O)c2ccc(F)cc2)c1 [Compound 132] | significantly increased | increased accumulation | – | –
Cc1ccc(O)c(NC(=O)CCc2ccccc2)c1 [Compound 147] | – | – | ~30 | –
O=[N+]([O-])c1ccc(N/N=C/c2ccccc2O)cc1 [Compound 263] | significantly increased | increased accumulation | – | slightly increase
